# Earlier results, collected in patent US8486463B1, “Cosmetic composition comprising aloe vera and caprylyl salicylic acid and method of making” (L'Oreal, priority 2012, dated 2013).
# Conditions: based on temperature and purity level
compound,measurement,value
O [water],pH,7
same,surface tension,55.73 dyne/cm
